{
  "source": "paper PMC10313921",
  "about": "“A living ex vivo platform for functional, personalized brain cancer diagnosis” (Cell Reports Medicine, 2023)",
  "type_in_all_cases": "cell-based, human",
  "key": {"[1]": {"tested_on": "PIS patient tumor tissue (intracranial sarcoma)", "experiment": "Drug screening of uncultured patient tumor tissue PIS on OBSCs", "conditions": "PIS patient tissue; scale -100 to +100", "procedure": "Tumor cells were seeded onto OBSCs 2h after slicing as described above. One day after tumor seeding, six concentrations of each drug were diluted in the media underneath each culture insert, or XRad was applied using an X-Rad 320 Precision X-ray machine (n = 4 tumor foci per concentration; n ≥ 24 tumor foci per drug per cell line). Three days after treatment, the bioluminescence of live tumor cells was measured using an AMI optical imager (Spectral Instruments) and dose-response curves were generated. Tumor survival was normalized to day one tumor fluorescence and compared to an untreated control group.\nTo engraft onto OBSCs, the cryopreserved/thawed or fresh brain tumor tissue was filtered through a 100 μm cell strainer. Each 50 mg of tissue was transfected with 1mL mcherry-FLuc Lentivirus at 1.5e7 vg/ml with 1μL polybrene for 4h at 37°C. After incubation, the brain tumor tissue was washed with PBS three times to remove the residual virus and reconstituted in PBS with a final volume of 150 μL. Then the tissue solution was engrafted atop OBSCs at ∼0.5 mg tissue in 3 μL of PBS on each hemisphere of the slice. The OBSC engrafted with patient tumor tissue was incubated at 37°C with 5% CO2 and 95% humidity. The BSM was changed after 24h and subsequently every 3 days. Tumor treatment studies were executed as described above for tumor lines. The viability of the patient tissue was measured by an AMI optical imaging system with the addition of 1.5 mg/mL luciferin underneath the culture insert.\nSeveral weighted parameters were factored into an overall drug sensitivity score.\nFor DSS parameters 1–6, therapeutic windows were calculated by comparing OBSC toxicity and tumor response at the doses where tumor kill passed through the DSS parameter (Table S1 and S3). For DSS parameter 7, the therapeutic window was calculated by comparing the slopes through the tumor EC50 and the OBSC tox EC50. For DSS parameter 8, the therapeutic window was calculated by comparing the areas under tumor kill and OBSC tox curves. Normalized therapeutic window ratios for DSS parameters 1–8 within each drug-tumor-OBSC interaction were calculated in the following manner: within each window, values ranged from +1 to −1, where values approaching +1 signify increasing tumor kill relative to normal tissue toxicity, and values approaching −1 indicate agents where tumors remained highly viable while toxicity to the normal OBSC tissue was elevated. DSS parameters 9–11 were determined based on the behavior of the tumor in response to the drug, as defined above.\nAll individually weighed parameters were added together to generate the DSS. Overall DSS from 0 to 100 signify increasing efficacy in tumor kill relative to OBSC toxicity, while scores from 0 to −100 describe scenarios in which tumors thrive more effectively than OBSCs for a given treatment. Dose-response values were calculated via linear interpolation of raw data, not from best-fit curve equations."}, "[2]": {"tested_on": "PDIPG (low-passage pediatric patient-derived line)", "experiment": "Drug screening of PDIPG tumor foci on OBSCs", "in_short": "(§1)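 Scores integrate therapeutic windows between tumor kill and slice toxicity (at DSS thresholds, EC50 slopes, curve areas) plus tumor-behavior parameters, giving −100 to +100. Tumor viability came from bioluminescence three days after drug or radiation, normalized to day-one fluorescence.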"}, "[3]": {"tested_on": "U373WT (wild-type established GBM line)", "experiment": "Drug screening of U373WT tumor foci on OBSCs", "in_short": "as §1"}, "[4]": {"tested_on": "U373KO (RAD18 knockout of U373WT via CRISPR)", "experiment": "Drug screening of U373KO tumor foci on OBSCs", "conditions": "U373 KO on OBSCs", "in_short": "as §1"}, "[5]": {"tested_on": "GBM8 (high-passage patient-derived GBM line)", "experiment": "Drug screening of GBM8 tumor foci on OBSCs", "in_short": "as §1"}, "[6]": {"tested_on": "MS21 (low-passage patient-derived GBM line)", "experiment": "Drug screening of MS21 tumor foci on OBSCs", "in_short": "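Luciferase-expressing tumor cells seeded onto organotypic brain slice cultures; one day later treated with six drug concentrations in the medium, or X-irradiation. Bioluminescence read three days after treatment, normalised to day-one fluorescence and untreated controls. Dose-response values by linear interpolation; DSS combines weighted tumor-kill versus slice-toxicity parameters (−100 to 100).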"}, "[7]": {"tested_on": "LN229 (established GBM line)", "experiment": "Drug screening of LN229 tumor foci on OBSCs", "in_short": "as §1"}, "[8]": {"tested_on": "MB231Br (breast cancer metastasis to brain)", "experiment": "Drug screening of MB231Br tumor foci on OBSCs"}, "[9]": {"tested_on": "7 cell lines (MB231Br, LN229, U373WT, U373KO, GBM8, MS21, PDIPG)", "experiment": "Drug screening on OBSCs, summary over the panel of seven tumor lines", "conditions": "number of lines responding", "in_short": "as §1"}, "[10]": {"conditions": "area under the dose-response curve, trapezoidal rule"}, "[11]": {"conditions": "dose required to kill 10% of the tumor"}, "[12]": {"conditions": "dose required to kill 25% of the tumor"}},
  "data": [
    {"smiles": "COc1cc([C@@H]2c3cc4c(cc3[C@@H](O[C@@H]3O[C@@H]5CO[C@@H](C)O[C@H]5[C@H](O)[C@H]3O)[C@H]3COC(=O)[C@H]23)OCO4)cc(OC)c1O", "note": "[Etoposide]", "values": [
      {"measurement": "DSS (drug sensitivity score)", "setting": "[1]", "result": 80},
      {"measurement": "EC50", "setting": "[2]; Homo sapiens", "result": 574, "unit": "µM"},
      {"measurement": "EC90", "setting": "[2]; Homo sapiens", "result": "> 10", "unit": "µM"},
      {"measurement": "IC50", "setting": "[2]; Homo sapiens", "result": 574, "unit": "µM"},
      {"measurement": "Killing at highest dose", "setting": "[2]; PDIPG on OBSCs", "result": "7.50E-01 fraction of tumor population killed"},
      {"measurement": "AUC", "setting": "[2]; PDIPG on OBSCs, area under the dose-response curve, trapezoidal rule", "result": "6.75E+02"},
      {"measurement": "EC10", "setting": "[2]; PDIPG on OBSCs, dose required to kill 10% of the tumor", "result": 222, "unit": "µM"},
      {"measurement": "EC25", "setting": "[2]; PDIPG on OBSCs, dose required to kill 25% of the tumor", "result": 242, "unit": "µM"},
      {"measurement": "EC75", "setting": "[2]; PDIPG on OBSCs, dose required to kill 75% of the tumor", "result": 1000, "unit": "µM"},
      {"measurement": "Slope", "setting": "[2]; PDIPG on OBSCs, slope through the EC50", "result": "-5.87E-04"},
      {"measurement": "EC50", "setting": "[3]; Homo sapiens, U373 MG, U373 WT on OBSCs, dose required to kill 50% of the tumor", "result": 260, "unit": "µM"},
      {"measurement": "EC90", "setting": "[3]; Homo sapiens, U373 MG, U373 WT on OBSCs, dose required to kill 90% of the tumor", "result": "> 10", "unit": "µM"},
      {"measurement": "IC50", "setting": "[3]; Homo sapiens, U373 MG, U373 WT on OBSCs, dosed day 1, survival via bioluminescence day 4, linear interpolation", "result": 260, "unit": "µM"},
      {"measurement": "Killing at highest dose", "setting": "[3]; U373 WT on OBSCs", "result": "3.30E-01 fraction of tumor population killed"},
      {"measurement": "AUC", "setting": "[3]; U373 WT on OBSCs, area under the dose-response curve, trapezoidal rule", "result": "6.12E+02"},
      {"measurement": "EC10", "setting": "[3]; U373 WT on OBSCs, dose required to kill 10% of the tumor", "result": 25.6, "unit": "µM"},
      {"measurement": "EC25", "setting": "[3]; U373 WT on OBSCs, dose required to kill 25% of the tumor", "result": 65.4, "unit": "µM"},
      {"measurement": "Slope", "setting": "[3]; U373 WT on OBSCs, slope through the EC50", "result": "-1.26E-04"},
      {"measurement": "DSS (drug sensitivity score)", "setting": "[3]; U373 WT, scale -100 to +100, tumor kill relative to OBSC toxicity", "result": "−13"},
      {"measurement": "EC50", "setting": "[4]; Homo sapiens, U373 MG, dose required to kill 50% of the tumor", "result": 37.8, "unit": "µM"},
      {"measurement": "EC90", "setting": "[4]; Homo sapiens, U373 MG, dose required to kill 90% of the tumor", "result": "> 10", "unit": "µM"},
      {"measurement": "IC50", "setting": "[4]; Homo sapiens, U373 MG, dosed day 1, survival via bioluminescence day 4, linear interpolation", "result": 38, "unit": "µM"},
      {"measurement": "Killing at highest dose", "setting": "[4]", "result": "6.38E-01 fraction of tumor population killed"},
      {"measurement": "AUC", "setting": "[4]; [10]", "result": "3.37E+02"},
      {"measurement": "EC10", "setting": "[4]; [11]", "result": 2.42, "unit": "µM"},
      {"measurement": "EC25", "setting": "[4]; [12]", "result": 6.06, "unit": "µM"},
      {"measurement": "Slope", "setting": "[4]; slope through the EC50", "result": "-3.13E-03"},
      {"measurement": "Killing at highest dose", "setting": "[5]; GBM8 on OBSCs", "result": "1.00E+00 fraction of tumor population killed"},
      {"measurement": "AUC", "setting": "[5]; GBM8 on OBSCs, area under the dose-response curve, trapezoidal rule", "result": "8.40E+00"},
      {"measurement": "EC10", "setting": "[5]; GBM8 on OBSCs, dose required to kill 10% of the tumor", "result": 0.558, "unit": "µM"},
      {"measurement": "EC25", "setting": "[5]; GBM8 on OBSCs, dose required to kill 25% of the tumor", "result": 1.74, "unit": "µM"},
      {"measurement": "EC75", "setting": "[5]; GBM8 on OBSCs, dose required to kill 75% of the tumor", "result": 7.47, "unit": "µM"},
      {"measurement": "Slope", "setting": "[5]; GBM8 on OBSCs, slope through the EC50", "result": "-8.73E-02"},
      {"measurement": "EC50", "setting": "[5]; Homo sapiens", "result": 4.6, "unit": "µM"},
      {"measurement": "EC90", "setting": "[5]; Homo sapiens", "result": 9.19, "unit": "µM"},
      {"measurement": "IC50", "setting": "[5]; Homo sapiens", "result": 5.2, "unit": "µM"},
      {"measurement": "EC50", "setting": "[6]; Homo sapiens", "result": "> 10", "unit": "µM"},
      {"measurement": "EC90", "setting": "[6]; Homo sapiens", "result": "> 10", "unit": "µM"},
      {"measurement": "Killing at highest dose", "setting": "[6]; MS21 on OBSCs", "result": "-8.00E-02 fraction of tumor population killed"},
      {"measurement": "AUC", "setting": "[6]; MS21 on OBSCs, area under the dose-response curve, trapezoidal rule", "result": "1.15E+03"},
      {"measurement": "Killing at highest dose", "setting": "[7]", "result": "4.40E-01 fraction of tumor population killed"},
      {"measurement": "EC50", "setting": "[7]; Homo sapiens, LN-229, dose required to kill 50% of the tumor", "result": "> 10", "unit": "µM"},
      {"measurement": "EC90", "setting": "[7]; Homo sapiens, LN-229, dose required to kill 90% of the tumor", "result": "> 10", "unit": "µM"},
      {"measurement": "IC50", "setting": "[7]; Homo sapiens, LN-229, dosed day 1, survival via bioluminescence day 4, linear interpolation", "result": "> 10", "unit": "µM"},
      {"measurement": "AUC", "setting": "[7]; [10]", "result": "6.48E+02"},
      {"measurement": "EC10", "setting": "[7]; [11]", "result": 3.7, "unit": "µM"},
      {"measurement": "EC25", "setting": "[7]; [12]", "result": 9.26, "unit": "µM"},
      {"measurement": "Slope", "setting": "[7]; slope through the EC50", "result": "-1.73E-04"},
      {"measurement": "EC50", "setting": "[8]; Homo sapiens, MB231BR on OBSCs, dose required to kill 50% of the tumor", "result": 100, "unit": "µM"},
      {"measurement": "EC90", "setting": "[8]; Homo sapiens, MB231BR on OBSCs, dose required to kill 90% of the tumor", "result": "> 10", "unit": "µM"},
      {"measurement": "IC50", "setting": "[8]; Homo sapiens, MB231Br on OBSCs, dosed day 1, survival via bioluminescence day 4, linear interpolation", "result": 100, "unit": "µM"},
      {"measurement": "Killing at highest dose", "setting": "[8]; MB231BR on OBSCs", "result": "7.20E-01 fraction of tumor population killed"},
      {"measurement": "AUC", "setting": "[8]; MB231BR on OBSCs, area under the dose-response curve, trapezoidal rule", "result": "4.75E+02"},
      {"measurement": "EC10", "setting": "[8]; MB231BR on OBSCs, dose required to kill 10% of the tumor", "result": 5.26, "unit": "µM"},
      {"measurement": "EC25", "setting": "[8]; MB231BR on OBSCs, dose required to kill 25% of the tumor", "result": 25, "unit": "µM"},
      {"measurement": "Slope", "setting": "[8]; MB231BR on OBSCs, slope through the EC50", "result": "-3.00E-03"},
      {"measurement": "response / killing over the 7 cell lines", "setting": "[9]", "result": "6 of 7"}
    ]}
  ]
}
